This passage reports viability and GI50 results from article PMC9050923, “6,N^2-Diaryl-1,3,5-triazine-2,4-diamines: synthesis, antiproliferative activity and 3D-QSAR modeling” (RSC Advances, 2020).

Common to all, as to format: cell-based
One assay has as its system MCF-7. Briefly: MTT assay, MCF-7 breast cancer cells. Particulars: Homo sapiens; for viability at 10 µM: MCF7, 10 μM, 72 h after the treatment, mean of three independent experiments, read-out: Percentage of cell viability MCF-7. How it is done:
(§1) The prepared compounds 1–126 were tested on three breast cancer cell lines namely, MDA-MB231, SKBR-3 and MCF-7 using MTT assay. SKBR-3 and MCF-7 cell lines are estrogen and progesterone hormone positive cell lines often used as a model for the hormone therapy.[18] MDA-MB231 is triple negative breast cancer cell line, which is negative to estrogen and progesterone receptors and human epidermal growth factor receptor 2, a perfect model for chemotherapy.[18] Initially, all the prepared compounds 1–126 were tested on these three cancer cell lines at the screening concentration (10 μM) and percentage of cell viability was calculated 72 h after the treatment (Table 1).
(§2) The growth inhibitory effect of the compounds was determined on breast tumor cell line (MDA-MB231, SKBR-3 and MCF-7) at different concentrations with methotrexate and nilotinib as positive controls (Table 2).
(§3) The cytotoxic activity of 6,N^2-diaryl-1,3,5-triazine-2,4-diamines (1–126) was evaluated against three breast carcinoma cell lines (MDA-MB231, SKBR-3, and MCF-7) and normal breast cell line (MCF-10A) by MTT assay.[22] All cells were obtained from the American Type Culture Collection and were grown in 10% fetal bovine serum and 1% pen-strep antibiotic supplemented media (DMEM for MDA-MB231 and SKBR-3, RPMI for MCF-7, and MEGM for MCF-10A). For MTT assay, 20 000 to 75 000 cells per mL (based on the doubling time for each cell line) were seeded in 96 well plates and incubated for 24 h at 37 °C in 5% CO2 incubator. Then, compounds at different concentrations were added followed by the incubation at 37 °C for 72 h. After that, MTT solution (0.5 mg mL^−1) was added and the plates were incubated for another 4 h. The supernatant was then discarded and 100 μL of DMSO was added to each well. The plates were then read by Tecan NanoQuant (model: infinite m200 pro) plate reader and absorbance was measured at 570 nm. GI50 values were calculated using sigmoidal concentration–response curves (see ESI ^†) generated using the GraphPad Prism 7 program. Three independent experiments were carried out and the data were represented as mean of the three experiments.

For the next assay, the system named is MDA-MB231. The experiment in a line: MTT assay, MDA-MB231 breast cancer cells. The following applies: Homo sapiens, MDA-MB-231, MTT; for viability at 10 µM: 72 h after the treatment, mean of three independent experiments, read-out: Percentage of cell viability MDA-MB231; for GI50: 72 h, mean of three independent experiments ± SEM, read-out: GI50 (μM) ± SEM MDA-MB231. The method, then:
as §1, §2, §3

Another assay has as its system SKBR-3. The experiment in a line: MTT assay, SKBR-3 breast cancer cells. Particulars: Homo sapiens, SK-BR-3, MTT; for viability at 10 µM: 72 h after the treatment, mean of three independent experiments, read-out: Percentage of cell viability SKBR-3. The method, then: as §1, §2, §3

Regarding `Nc1nc(Nc2ccccc2)nc(-c2ccccc2)n1` [Compound 1], the viability at 10 µM in the assay with MCF-7 was 90%; with MDA-MB231, 87%; with SKBR-3 it was 81%.

For `Nc1nc(Nc2ccccc2Cl)nc(-c2ccccc2)n1` [Compound 4, N ^2-(2-Chlorophenyl)-6-phenyl-1,3,5-triazine-2,4-diamine], the viability at 10 µM with MCF-7 was found to be 81%; in the assay on MDA-MB231, 72%; in the assay with SKBR-3 it was 88%.

Turning to `Nc1nc(Nc2ccc(Cl)cc2)nc(-c2ccccc2)n1` [Compound 5], the viability at 10 µM in the assay with MCF-7 worked out at 100%; in the assay with MDA-MB231, 65%; in the assay with SKBR-3, 94%.

For `Nc1nc(Nc2ccc(Br)cc2)nc(-c2ccccc2)n1` [Compound 6], the viability at 10 µM with MCF-7 worked out at 100%; with MDA-MB231, 65%; with SKBR-3, 97%.

For the compound `Cc1ccc(Nc2nc(N)nc(-c3ccccc3)n2)cc1` [Compound 7], the viability at 10 µM stood at 87% in the assay with MCF-7, 98% in the assay on MDA-MB231 and 87% in the assay with SKBR-3.

With `COc1ccccc1Nc1nc(N)nc(-c2ccccc2)n1` [Compound 8], the viability at 10 µM in the assay with MCF-7 came out at 91%; with MDA-MB231, 78%; in the assay on SKBR-3 it was 97%.

With `COc1ccc(Nc2nc(N)nc(-c3ccccc3)n2)cc1` [Compound 9], the viability at 10 µM with MCF-7 was 84%; in the assay with MDA-MB231, 98%; in the assay on SKBR-3, 96%.

On to `Nc1nc(Nc2ccc(OC(F)(F)F)cc2)nc(-c2ccccc2)n1` [Compound 10], for which the viability at 10 µM is 92% with MCF-7, 96% with MDA-MB231 and 86% with SKBR-3.

Regarding `CC(C)c1ccc(Nc2nc(N)nc(-c3ccccc3)n2)cc1` [Compound 11], the figures for the viability at 10 µM in the assay on MCF-7, in the assay on MDA-MB231 and in the assay with SKBR-3 were 99%, 99% and 86%, respectively.

Regarding `Nc1nc(Nc2cccnc2)nc(-c2ccccc2)n1` [Compound 12], the values for the viability at 10 µM in the assay on MCF-7, in the assay on MDA-MB231 and in the assay with SKBR-3 were 87%, 59% and 78%, respectively.

For the compound `Nc1nc(Nc2ccccc2)nc(-c2cccc(F)c2)n1` [Compound 13], the figures for the viability at 10 µM with MCF-7, with MDA-MB231 and with SKBR-3 were 89%, 100% and 100%, respectively.

With `Nc1nc(Nc2ccc(Cl)cc2)nc(-c2cccc(F)c2)n1` [Compound 15], the results for the viability at 10 µM in the assay with MCF-7, in the assay on MDA-MB231 and in the assay with SKBR-3 were 89%, 100% and 100%, respectively.

In the case of `CC(C)c1ccc(Nc2nc(N)nc(-c3cccc(F)c3)n2)cc1` [Compound 20], the viability at 10 µM in the assay on MCF-7 amounted to 92%; with MDA-MB231, 100%; with SKBR-3 it was 100%.

For `Nc1nc(Nc2ccccc2)nc(-c2ccc(F)cc2)n1` [Compound 21], the results for the viability at 10 µM in the assay on MCF-7, in the assay on MDA-MB231 and in the assay with SKBR-3 were 100%, 83% and 94%, respectively.

In the case of `Nc1nc(Nc2ccccc2F)nc(-c2ccc(F)cc2)n1` [Compound 22], the figures for the viability at 10 µM in the assay with MCF-7, with MDA-MB231 and with SKBR-3 were 100%, 83% and 85%, respectively.

`Nc1nc(Nc2ccc(F)cc2)nc(-c2ccc(F)cc2)n1` [Compound 23]: the viability at 10 µM with MCF-7 amounted to 93%; with MDA-MB231, 81%; with SKBR-3 it was 100%.

For the compound `Nc1nc(Nc2ccccc2Cl)nc(-c2ccc(F)cc2)n1` [Compound 24], the viability at 10 µM in the assay on MCF-7 is 91%; with MDA-MB231, 75%; in the assay with SKBR-3, 75%.

Turning to `Nc1nc(Nc2cccc(Cl)c2)nc(-c2ccc(F)cc2)n1` [Compound 25], the viability at 10 µM amounted to 95% in the assay with MCF-7, 73% in the assay with MDA-MB231 and 88% in the assay on SKBR-3.

With `Nc1nc(Nc2ccc(Cl)cc2)nc(-c2ccc(F)cc2)n1` [Compound 26], the viability at 10 µM with MCF-7 was found to be 87%; in the assay with MDA-MB231, 67%; in the assay with SKBR-3 it was 98%.

`Nc1nc(Nc2ccc(Br)cc2)nc(-c2ccc(F)cc2)n1` [Compound 27]: the viability at 10 µM in the assay on MCF-7 came out at 94%; in the assay on MDA-MB231 it was 96%; with SKBR-3, 100%.

Take `Cc1ccc(Nc2nc(N)nc(-c3ccc(F)cc3)n2)cc1` [Compound 28]: the viability at 10 µM in the assay with MCF-7 came out at 88%; in the assay with MDA-MB231, 99%; in the assay on SKBR-3, 90%.

Consider `COc1ccccc1Nc1nc(N)nc(-c2ccc(F)cc2)n1` [Compound 29], for which the values for the viability at 10 µM with MCF-7, in the assay with MDA-MB231 and with SKBR-3 were 96%, 60% and 81%, respectively.

As to `Nc1nc(Nc2ccc(OC(F)(F)F)cc2)nc(-c2ccc(F)cc2)n1` [Compound 31], the viability at 10 µM came to 87% in the assay on MCF-7, 88% in the assay on MDA-MB231 and 92% in the assay with SKBR-3.

For `CC(C)c1ccc(Nc2nc(N)nc(-c3ccc(F)cc3)n2)cc1` [Compound 32], the viability at 10 µM in the assay with MCF-7 was 84%; in the assay on MDA-MB231 it was 94%; in the assay with SKBR-3, 100%.

Turning to `Nc1nc(Nc2cccnc2)nc(-c2ccc(F)cc2)n1` [Compound 33], the viability at 10 µM with MCF-7 came out at 85%; with MDA-MB231, 74%; in the assay with SKBR-3 it was 87%.

`Nc1nc(Nc2ccccc2F)nc(-c2ccc(Cl)cc2)n1` [Compound 35]: the values for the viability at 10 µM in the assay with MCF-7, in the assay on MDA-MB231 and in the assay with SKBR-3 were 93%, 82% and 99%, respectively.

As for `Nc1nc(Nc2ccccc2Cl)nc(-c2ccc(Cl)cc2)n1` [Compound 37], the viability at 10 µM in the assay with MCF-7 was 99%; in the assay on MDA-MB231, 99%; with SKBR-3, 89%.

`Nc1nc(Nc2cccc(Cl)c2)nc(-c2ccc(Cl)cc2)n1` [Compound 38]: the viability at 10 µM in the assay with MCF-7 was 84%; with MDA-MB231 it was 99%; with SKBR-3, 92%.

As to `Nc1nc(Nc2ccc(Cl)cc2)nc(-c2ccc(Cl)cc2)n1` [Compound 39], the viability at 10 µM with MCF-7 was 100%; with MDA-MB231, 97%; with SKBR-3 it was 100%.

As for `Nc1nc(Nc2ccc(Br)cc2)nc(-c2ccc(Cl)cc2)n1` [Compound 40], the viability at 10 µM in the assay on MCF-7 worked out at 92%; with MDA-MB231 it was 80%; with SKBR-3, 100%.

On to `COc1ccccc1Nc1nc(N)nc(-c2ccc(Cl)cc2)n1` [Compound 41], for which the values for the viability at 10 µM with MCF-7, in the assay with MDA-MB231 and in the assay on SKBR-3 were 100%, 83% and 89%, respectively.

For the compound `COc1ccc(Nc2nc(N)nc(-c3ccc(Cl)cc3)n2)cc1` [Compound 42], the figures for the viability at 10 µM in the assay on MCF-7, in the assay on MDA-MB231 and in the assay on SKBR-3 were 85%, 61% and 90%, respectively.

In the case of `Nc1nc(Nc2ccc(OC(F)(F)F)cc2)nc(-c2ccc(Cl)cc2)n1` [Compound 43], the viability at 10 µM in the assay with MCF-7 was found to be 100%; in the assay on MDA-MB231, 93%; with SKBR-3 it was 83%.

`CC(C)c1ccc(Nc2nc(N)nc(-c3ccc(Cl)cc3)n2)cc1` [Compound 44]: the results for the viability at 10 µM with MCF-7, in the assay with MDA-MB231 and with SKBR-3 were 96%, 100% and 97%, respectively.

With `Nc1nc(Nc2cccnc2)nc(-c2ccc(Cl)cc2)n1` [Compound 45], the viability at 10 µM was 89% in the assay on MCF-7, 99% with MDA-MB231 and 74% in the assay with SKBR-3.

In the case of `Nc1nc(Nc2ccccc2F)nc(-c2ccc(Br)cc2)n1` [Compound 46], the figures for the viability at 10 µM in the assay on MCF-7, with MDA-MB231 and with SKBR-3 were 100%, 75% and 91%, respectively.

As for `Nc1nc(Nc2ccc(F)cc2)nc(-c2ccc(Br)cc2)n1` [Compound 47], the viability at 10 µM in the assay with MCF-7 was found to be 100%; with MDA-MB231 it was 58%; in the assay on SKBR-3, 98%.

Regarding `CN(Cc1cnc2nc(N)nc(N)c2n1)c1ccc(C(=O)N[C@@H](CCC(=O)O)C(=O)O)cc1` [Methotrexate, reference compound], the GI50 is 5.79 ± 0.47 µM in the assay with MCF-7 (MCF7, 72 h, mean of three independent experiments ± SEM) and 0.01 ± 0.001 µM in the assay on MDA-MB231.

For the compound `Cc1cn(-c2cc(NC(=O)c3ccc(C)c(Nc4nccc(-c5cccnc5)n4)c3)cc(C(F)(F)F)c2)cn1` [Nilotinib, reference compound], the GI50 in the assay with MDA-MB231 turned out to be 0.04 ± 0.001 µM; in the assay with SKBR-3 (72 h, mean of three independent experiments ± SEM), 9.6 ± 0.51 µM.
